Reference: patent publication US10968232B2 (Merck Sharp & Dohme Corp., priority 2016, dated 2021)

Each compound was assayed against T1, human GPR40 (Homo sapiens, UniProt O14842) (assay: Inositol Phosphate Turnover (IP1) Assay). Conditions: HEK cells stably expressing human GPR40; CisBio IP-One kit; 60 minutes at 37 degrees; read-out: Human IP1 EC50.
T1 construct: expressed in transfected cells
Assay type: cell-based
Procedure: Human GPR40 stable cell-lines were generated in HEK cells. The expression plasmids were transfected using lipofectamine (Life Technologies) following manufacturer's instructions. Stable cell-lines were generated following drug selection and single cell cloning. The assay was performed in 384-well format. HEK cells stably expressing human GPR40 were plated at 7500 cells per well in growth medium (DMEM/10% fetal calf serum). Cell plates were then incubated 16 hours at 37 degrees in a 5% CO2 incubator. Measurement of Inositol Phosphate Turnover (IP1) was performed using the CisBio IP-One kit (Part number 62IPAPEB). After the 16 hour incubation, the growth media was removed by centrifugation using the BlueWasher (AusWasher GUI Ver. v1.0.1.8) Protocol #21-“Light Dry” and 10 ul of stimulation buffer (prepared as described in the kit) was added to each well. In a separate plate, compounds were diluted in DMSO (200-fold over the final concentration in the assay well) and 50 nl was acoustically transferred to the appropriate well in the assay cell plate. The plates were then incubated for 60 minutes at 37 degrees in a 5% CO2 incubator. 10 ul of detection buffer (also prepared as described in the IP-One kit) was added to each well and the plates were incubated at room temperature for 60 minutes in the dark. The plates were then read in a Perkin Elmer EnVision or equivalent reader able to measure FRET. […] Data was normalized to % activity using a reference compound and EC50s determined using a standard 4-parameter fit.

T1 sequence (O14842 whole entry): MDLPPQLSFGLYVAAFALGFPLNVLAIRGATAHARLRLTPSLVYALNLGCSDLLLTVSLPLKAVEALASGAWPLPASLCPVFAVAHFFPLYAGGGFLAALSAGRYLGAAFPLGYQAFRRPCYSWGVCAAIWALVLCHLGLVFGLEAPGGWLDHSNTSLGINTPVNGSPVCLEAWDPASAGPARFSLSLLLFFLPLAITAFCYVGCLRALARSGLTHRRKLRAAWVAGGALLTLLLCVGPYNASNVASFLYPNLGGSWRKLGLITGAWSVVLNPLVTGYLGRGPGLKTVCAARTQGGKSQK

SMILES | EC50 [nM]
C[C@H](C(=O)O)[C@H](c1ccc2c(c1)OC1(CC2)CCN(S(=O)(=O)c2ccc(C(F)(F)F)cc2Cl)CC1)C1CC1 [Example 26, (2S,3R)-3-(1′-((2-chloro-4-(trifluoromethyl)-phenyl)sulfonyl)spiro [chroman-2,4′-piperidin]-7-yl)-3-cyclopropyl-2-methylpropanoic acid] | 97.8
C[C@H](C(=O)O)[C@H](c1ccc2c(c1)OC1(CC2)CC2(CN([C@@H](C)c3cc(C(F)(F)F)ccc3C(F)(F)F)C2)C1)C1CC1 [Example 127, (2S,3R)-3-cyclopropyl-3-(2,2-(S)-2-(1-(2,5-bis(trifluoromethyl)phen-yl)ethyl)-2-azaspiro[3.3]-heptane-chroman-7-yl)-2-methylpropanoic acid] | 0.46
C[C@H](C(=O)O)[C@H](c1ccc2c(c1F)OC1(CC2)CCN([C@H](C)c2cc(C(F)(F)F)ccc2Cl)CC1)C1CC1 (mixture of isomers) [Example 12, (2S,3R)-3-(1′-((RS)-1-(2-chloro-5-(trifluoro-methyl)phenyl)ethyl)-8-fluorospiro[chroman-2,4′-piperidin]-7-yl)-3-cyclopropyl-2-methylpropanoic acid] | 995
C[C@H](C(=O)O)[C@H](c1ccc2c(c1F)OC1(CC2)CCN(Cc2cc(C(F)(F)F)ccc2C(F)(F)F)CC1)C1CC1 [Example 8, (2S,3R)-3-(1′-(2,5-bis-(trifluoromethyl)benzyl)-8-fluoro-spiro[chroman-2,4′-piperidin]-7-yl)-3-cyclopropyl-2-methyl-propanoic acid] | 20.6
C[C@H](C(=O)O)[C@H](c1ccc2c(c1F)OC1(CC2)CCN(Cc2cc(Cl)ccc2OC(F)F)CC1)C1CC1 [Example 20, (2S,3R)-3-(1′-(5-chloro-2-(difluoromethoxy)benzyl)-8-fluorospiro[chroman-2,4′-piperidin]-7-yl)-3-cyclopropyl-2-methylpropanoic Acid] | 13.5
CC(c1cc(C2CC2)ccc1C(F)(F)F)N1CCC2(CCc3ccc([C@H](C4CC4)[C@H](C)C(=O)O)cc3O2)CC1 (single isomer, unassigned) [Example 58, (2S,3R)-3-cyclopropyl-3-(1′-((S or R)-1-(5-cyclo-propyl-2-(trifluoromethyl)-phenyl)ethyl)-spiro [chroman-2,4′-piperidin]-7-yl)-2-methylpropanoic acid] | 4.43
C[C@H](C(=O)O)[C@H](c1ccc2c(c1)OC1(CC2)CC(N(C)[C@H](C)c2cc(C(F)(F)F)ccc2C(F)(F)F)C1)C1CC1 (stereo partly drawn) [Example 101] | 17
CC(c1cc(-c2ccoc2)ccc1OC(F)(F)F)N1CCC2(CCc3ccc([C@H](C4CC4)[C@H](C)C(=O)O)cc3O2)CC1 (single isomer, unassigned) [Example 118, (2S,3R)-3-cyclopropyl-3-(1′-((S or R)-1-(5-(furan-3-yl)-2-(trifluoromethoxy)phenyl)ethyl)spiro[chroman-2,4′-piperidin]-7-yl)-2-methylpropanoic acid] | 2.29
C[C@H](C(=O)O)[C@H](c1ccc2c(c1)OC1(CC2)CCN([C@@H](C)c2cc(C(F)(F)F)ccc2C(F)(F)F)CC1)C1CC1 [Example 131, Sodium (2S,3R)-3-(1′-((S)-1-(2,5-bis(trifluoromethyl)phenyl)ethyl)spiro[chromane-2,4′-piperidin]-7-yl)-3-cyclopropyl-2-methylpropanoate] | > 1000

Continued by falling EC50, values first:

EC50 [nM] | SMILES
856 | C[C@H](C(=O)O)[C@H](c1ccc2c(c1)OC1(CC2)CCN(c2ccnc(C(F)(F)F)n2)CC1)C1CC1 [Example 56, sodium (2S3R)-3-cyclopropyl-2-methyl-3-(1′-(2-(trifluoromethyl)pyrimidin-4-yl)spiro[chroman-2,4′-piperidin]-7-yl)propanoate]
23.4 | Cc1ccc(OC(F)(F)F)c(CN2CCC3(CCc4ccc([C@H](C5CC5)[C@H](C)C(=O)O)cc4O3)CC2)c1 [Example 77, (2S,3R)-3-cyclopropyl-2-methyl-3-(1′-(5-methyl-2-(trifluoromethoxy)benzyl)spiro[chroman-2,4′-piperidin]-7-yl)propanoic acid]
21.5 | Cc1ccc(OC(F)(F)F)c(C(C)N2CCC3(CCc4ccc([C@H](C5CC5)[C@H](C)C(=O)O)cc4O3)CC2)c1 (mixture of isomers) [Example 112]
16.2 | C[C@H](C(=O)O)[C@H](c1ccc2c(c1)OC1(CC2)CC(N(C)Cc2cc(C(F)(F)F)ccc2C(F)(F)F)C1)C1CC1 (single isomer, unassigned) [Example 97]
12.9 | C[C@H](C(=O)O)[C@H](c1ccc2c(c1)OC1(CC2)CCN(c2cccc(C(F)(F)F)c2)CC1)C1CC1 [Example 41, (2S,3R)-3-cyclopropyl-2-methyl-3-(1′-(3-(trifluoromethyl)phenyl)spiro[chroman-2,4′-piperidin]-7-yl)propanoic acid]
8.52 | C[C@H](C(=O)O)[C@H](c1ccc2c(c1)OC1(CC2)CC2(CN([C@H](C)c3cc(C(F)(F)F)ccc3C(F)(F)F)C2)C1)C1CC1 [Example 126, (2S,3R)-3-cyclopropyl-3-(2,2-(R)-2-(1-(2,5-bis(trifluoromethyl)phenyl)ethyl)-2-azaspiro[3.3]heptane-chroman-7-yl)-2-methylpropanoic Acid]
3.29 | CC(c1cc(F)ccc1OC(F)(F)F)N1CCC2(CCc3ccc([C@H](C4CC4)[C@H](C)C(=O)O)c(F)c3O2)CC1 (stereo partly drawn) [Example 2, (2S,3R)-3-cyclopropyl-3-(8-fluoro-1′-(1-(5-fluoro-2-(trifluoro-methoxy)phenyl)ethyl)-spiro[chroman-2,4′-piperidin]-7-yl)-2-methylpropanoic acid]
1.62 | CC(c1cc(C(F)(F)F)ccc1C(F)(F)F)N(C)C1CC2(CCc3ccc([C@H](C4CC4)[C@H](C)C(=O)O)cc3O2)C1 (stereo partly drawn) [Example 99, (2S,3R)-3-(3′-((1-(2,5-bis(trifluoromethyl)phenyl)ethyl)(methyl)amino)spiro[chroman-2,1′-cyclobutan]-7-yl)-3-cyclopropyl-2-methylpropanoic Acid]
1.06 | C[C@H](C(=O)O)[C@H](c1ccc2c(c1)OC1(CCCN(Cc3cc(C(F)(F)F)ccc3C(F)(F)F)CC1)CC2)C1CC1 (single isomer, unassigned) [Example 48, sodium (2S,3R)-3-((R or S)-1-(2,5-bis (trifluoromethyl)benzyl)spiro[azepane-4,2′-chroman]-7′-yl)-3-cyclopropyl-2-methyl-propanoate]
0.812 | CCC(c1cc(Cl)ccc1OC(F)(F)F)N1CCC2(CCc3ccc([C@H](C4CC4)[C@H](C)C(=O)O)cc3O2)CC1 (stereo partly drawn) [Example 110, (2S,3R)-3-(1′-(1-(5-chloro-2-(trifluoromethoxy)phenyl)propyl)spiro[chroman-2,4′-piperidin]-7-yl)-3-cyclopropyl-2-methylpropanoic Acid]
0.73 | CCC(c1cc(C(F)(F)F)ccc1C(F)(F)F)N1CCC2(CCc3ccc([C@H](C4CC4)[C@H](C)C(=O)O)cc3O2)CC1 (stereo in doubt) [Example 9, (2S,3R)-3-(1′-((S)-1-(2,5-bis(trifluoromethyl)phenyl)propyl)spiro[chroman-2,4′-piperidin]-7-yl)-3-cyclopropyl-2-methylpropanoic Acid]
0.41 | C[C@H](C(=O)O)[C@H](c1ccc2c(c1)OC1(CC2)CCC(Nc2ncccc2C(F)(F)F)CC1)C1CC1 (single isomer, unassigned) [Example 68]
